Consider 2 molecules from publication PMC8084333, “Trehalose and α-glucan mediate distinct abiotic stress responses in Pseudomonas aeruginosa” (PLoS Genetics, 2021).

Common to all, as to format: biochemical
Assay [1] deals with T1, TreS/Pep2 (Pseudomonas aeruginosa, UniProt Q9I1W3).
T1 construct: gene PA2152; natural TreS-Pep2 fusion; synthetic codon-optimised gene, N-terminal 6xHis-tag with TEV site, E. coli BL21(DE3), Ni and S200 columns
T1 sequence (Q9I1W3 1-1100): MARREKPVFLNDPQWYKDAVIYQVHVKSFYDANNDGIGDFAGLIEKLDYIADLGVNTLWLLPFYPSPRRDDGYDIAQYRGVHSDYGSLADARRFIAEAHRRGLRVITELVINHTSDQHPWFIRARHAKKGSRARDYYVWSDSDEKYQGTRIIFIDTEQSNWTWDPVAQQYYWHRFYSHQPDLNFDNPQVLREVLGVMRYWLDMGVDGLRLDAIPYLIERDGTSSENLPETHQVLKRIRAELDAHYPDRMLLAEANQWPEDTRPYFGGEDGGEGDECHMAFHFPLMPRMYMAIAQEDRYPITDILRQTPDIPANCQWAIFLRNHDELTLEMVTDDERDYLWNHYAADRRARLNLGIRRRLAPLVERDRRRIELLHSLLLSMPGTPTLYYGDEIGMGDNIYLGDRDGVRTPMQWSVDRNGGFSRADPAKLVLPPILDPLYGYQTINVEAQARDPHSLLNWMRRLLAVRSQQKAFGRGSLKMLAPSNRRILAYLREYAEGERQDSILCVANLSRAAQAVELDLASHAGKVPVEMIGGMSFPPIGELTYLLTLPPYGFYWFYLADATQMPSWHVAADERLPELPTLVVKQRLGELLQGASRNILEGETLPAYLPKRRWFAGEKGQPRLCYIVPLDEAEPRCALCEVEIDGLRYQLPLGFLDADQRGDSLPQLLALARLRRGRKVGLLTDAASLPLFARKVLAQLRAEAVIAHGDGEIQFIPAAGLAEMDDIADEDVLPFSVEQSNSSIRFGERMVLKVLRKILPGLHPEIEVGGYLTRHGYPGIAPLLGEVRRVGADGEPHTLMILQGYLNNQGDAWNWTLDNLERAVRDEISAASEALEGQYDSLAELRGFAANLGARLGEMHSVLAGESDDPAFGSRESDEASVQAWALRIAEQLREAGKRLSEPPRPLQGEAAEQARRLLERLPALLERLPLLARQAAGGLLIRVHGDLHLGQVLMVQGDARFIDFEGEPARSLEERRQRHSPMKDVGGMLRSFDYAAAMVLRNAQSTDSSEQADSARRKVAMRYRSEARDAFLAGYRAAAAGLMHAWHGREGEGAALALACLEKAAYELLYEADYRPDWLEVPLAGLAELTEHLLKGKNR
Briefly: TreS activity coupled to Pep2 maltokinase ADP-release assay. The note with it: trehalose isomerisation (TreS domain); ATP, 5 mM MgCl2, pH 8.0, 21 °C.

Assay [2] addresses T1, TreS/Pep2. As to the kind of experiment: coupled spectrophotometric ADP-release assay (PK/LDH), global fit. The note with it: maltokinase (Pep2 domain); ATP varied, 5 mM MgCl2, pH 8.0, 21 °C; KiB term of random order ternary complex model (substrate dissociation constant), not an inhibition constant.
The target of another assay is T2, MalQ (Pseudomonas aeruginosa, UniProt Q9I1V2).
T2 construct: gene PA2163; recombinant, N-terminal 6xHis-tag (pET101), E. coli SoluBL21, HisTrap
T2 sequence (Q9I1V2 1-684): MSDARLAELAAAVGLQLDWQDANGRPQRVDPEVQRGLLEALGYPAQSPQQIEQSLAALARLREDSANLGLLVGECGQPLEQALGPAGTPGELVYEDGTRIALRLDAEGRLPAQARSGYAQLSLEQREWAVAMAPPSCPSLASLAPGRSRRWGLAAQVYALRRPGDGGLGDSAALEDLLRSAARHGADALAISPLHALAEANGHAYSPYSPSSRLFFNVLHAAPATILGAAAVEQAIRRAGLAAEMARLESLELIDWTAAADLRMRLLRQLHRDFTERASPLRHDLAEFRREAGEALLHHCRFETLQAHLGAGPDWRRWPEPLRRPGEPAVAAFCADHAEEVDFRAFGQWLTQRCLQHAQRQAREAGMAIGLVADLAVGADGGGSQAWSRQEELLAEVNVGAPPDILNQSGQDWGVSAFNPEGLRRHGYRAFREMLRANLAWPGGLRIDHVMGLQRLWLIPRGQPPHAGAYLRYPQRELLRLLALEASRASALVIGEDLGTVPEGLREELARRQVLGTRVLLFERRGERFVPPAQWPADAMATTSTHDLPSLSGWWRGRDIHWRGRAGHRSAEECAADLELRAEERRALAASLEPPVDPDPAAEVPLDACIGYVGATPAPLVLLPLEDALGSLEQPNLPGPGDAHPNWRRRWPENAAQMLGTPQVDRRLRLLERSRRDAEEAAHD
As to the kind of experiment: MALDI-TOF MS. As to conditions: 1 mM substrate; disproportionation.

For orientation: Km means the substrate concentration at which the rate is half of its maximum. For the molecule `OC[C@H]1O[C@H](O[C@H]2O[C@H](CO)[C@@H](O)[C@H](O)[C@H]2O)[C@H](O)[C@@H](O)[C@@H]1O` [trehalose], on TreS/Pep2 [1], the Michaelis constant (Km) is greater than 100 mM.
Take `OC[C@H]1O[C@H](O[C@H]2[C@H](O)[C@@H](O)C(O)O[C@@H]2CO)[C@H](O)[C@@H](O)[C@@H]1O` (stereo partly drawn) [maltose]: the “Ki^Mal” value at TreS/Pep2 [2] is 550 ± 130 µM. Besides, the “MALDI-TOF MS” value on MalQ is listed as “We therefore incubated MalQ with maltose”.
